ChEMBL document CHEMBL5634090, “Design of phenothiazine-based cationic amphiphilic derivatives incorporating arginine residues: Potential membrane-active broad-spectrum antimicrobials combating pathogenic bacteria in vitro and in vivo” (Eur J Med Chem, 2023)
Values after ≈ are worked out from the molar mass of the structure shown.

What was measured:
[1] = tested on: Staphylococcus aureus; assay: Antibacterial activity against Staphylococcus aureus ATCC 29213 by microbroth dilution assay; format: functional
[2] = tested on: Escherichia coli; assay: Antibacterial activity against Escherichia coli ATCC 25922 by microbroth dilution assay; format: functional
[3] = tested on: Staphylococcus aureus; assay: Antibacterial activity against methicillin resistant Staphylococcus aureus N315 by microbroth dilution assay; format: functional
[4] = Hemolytic activity in rabbit erythrocytes; format: toxicity, cell-based, Oryctolagus cuniculus, Erythrocyte
[5] = tested on: Staphylococcus aureus; assay: Antibacterial activity against methicillin resistant Staphylococcus aureus NCTC 10442 by microbroth dilution assay; format: functional
[6] = tested on: Klebsiella pneumoniae; assay: Antibacterial activity against Klebsiella pneumoniae ATCC 10031 assessed as log reduction in bacterial load at 8 times MIC measured after 2 hrs by time kill assay; format: functional
[7] = tested on: Klebsiella pneumoniae; assay: Antibacterial activity against Klebsiella pneumoniae ATCC 14581 by microbroth dilution assay; format: functional
[8] = tested on: Pseudomonas aeruginosa; assay: Antibacterial activity against Pseudomonas aeruginosa ATCC 9027 by microbroth dilution assay; format: functional
[9] = tested on: Klebsiella pneumoniae; assay: Antibacterial activity against Klebsiella pneumoniae ATCC 10031 by microbroth dilution assay; format: functional
[10] = tested on: Klebsiella pneumoniae; assay: Induction of resistance development in Klebsiella pneumoniae ATCC 10031 assessed as fold increase in MIC treated over 20 serial passages by microdilution assay; format: functional
[11] = tested on: Staphylococcus aureus; assay: Induction of resistance development in Staphylococcus aureus ATCC 29213 assessed as fold increase in MIC treated over 20 serial passages by microdilution assay; format: functional
[12] = tested on: Staphylococcus aureus; assay: Inhibition of biofilm formation in Staphylococcus aureus ATCC 29213 at MIC by crystal violet staining assay relative to control; format: functional
[13] = tested on: Klebsiella pneumoniae; assay: Inhibition of biofilm formation in Klebsiella pneumoniae ATCC 10031 at MIC by crystal violet staining assay relative to control; format: functional
[14] = tested on: Staphylococcus aureus; assay: Antibiofilm activity against 24 hrs preformed biofilm in Staphylococcus aureus ATCC 29213 assessed as residual biomass at 4 times MIC relative to control; format: functional
[15] = tested on: Klebsiella pneumoniae; assay: Antibiofilm activity against 24 hrs preformed biofilm in Klebsiella pneumoniae ATCC 10031 assessed as residual biomass at 4 times MIC relative to control; format: functional

Structure (SMILES)	MIC [1] [µg/mL]	MIC [2] [µg/mL]	MIC [3] [µg/mL]	HC50 [4] [µg/mL]	MIC [5] [µg/mL]	further results
CCCCCOc1ccc2c(c1)N(CCCCCCCCNC(=N)N)c1ccccc1S2	1.56 (≈ 3.43 µM)	> 50	1.56 (≈ 3.43 µM)	> 200	1.56 (≈ 3.43 µM)	–
CCCCCOc1ccc2c(c1)N(CCCCCCCCN(CC)CC)c1ccccc1S2	3.12 (≈ 6.67 µM)	> 50	3.12 (≈ 6.67 µM)	> 200	3.12 (≈ 6.67 µM)	–
O=C(O)c1cn(C2CC2)c2cc(N3CCNCC3)c(F)cc2c1=O [CIPROFLOXACIN]	–	–	–	–	–	log(activity) [6]: 2.27; MIC [7]: 0.195 µg/mL (≈ 0.589 µM); MIC [8]: 0.195 µg/mL (≈ 0.589 µM); MIC [9]: 0.195 µg/mL (≈ 0.589 µM); fold change (FC) [10]: 128
Oc1ccc2c(c1)Nc1ccccc1S2	> 50	> 50	> 50	> 200	> 50	–
CCCCCCCCCOc1ccc2c(c1)Nc1ccccc1S2	> 50	> 50	> 50	> 200	> 50	–
CC(C)=CCOc1ccc2c(c1)N(CCCCN)c1ccccc1S2	6.25 (≈ 17.6 µM)	> 50	6.25 (≈ 17.6 µM)	> 200	6.25 (≈ 17.6 µM)	–
CCCCCCCCCN1c2ccccc2Sc2ccc(OCC(=O)N[C@@H](CCCNC(=N)N)C(=O)N[C@@H](CCCNC(=N)N)C(N)=O)cc21	1.56 (≈ 2.19 µM)	1.56 (≈ 2.19 µM)	1.56 (≈ 2.19 µM)	> 200	0.78 (≈ 1.1 µM)	MIC [7]: 3.12 µg/mL (≈ 4.4 µM); MIC [8]: > 50 µg/mL; MIC [9]: 3.12 µg/mL (≈ 4.4 µM)
CCCCCCCCCN1c2ccccc2Sc2ccc(OCC(=O)N[C@@H](CCCNC(=N)N)C(=O)N[C@@H](CCCNC(=N)N)C(=O)N[C@@H](CCCNC(=N)N)C(=O)OC)cc21	1.56 (≈ 1.77 µM)	3.12 (≈ 3.54 µM)	0.78 (≈ 0.884 µM)	> 200	1.56 (≈ 1.77 µM)	MIC [7]: 12.5 µg/mL (≈ 14.2 µM); MIC [8]: 12.5 µg/mL (≈ 14.2 µM); MIC [9]: 12.5 µg/mL (≈ 14.2 µM)
CCCCCOc1ccc2c(c1)N(CCCCN(CC)CC)c1ccccc1S2	6.25 (≈ 15.1 µM)	> 50	3.12 (≈ 7.57 µM)	> 200	3.12 (≈ 7.57 µM)	–
CCCCCOc1ccc2c(c1)N(CCCCN)c1ccccc1S2	3.12 (≈ 8.76 µM)	25 (≈ 70.1 µM)	3.12 (≈ 8.76 µM)	> 200	3.12 (≈ 8.76 µM)	–
CC1(C)S[C@@H]2[C@H](NC(=O)[C@H](N)c3ccc(O)cc3)C(=O)N2[C@H]1C(=O)O [AMOXICILLIN]	–	6.25 (≈ 17.1 µM)	–	–	–	–
CCCCCOc1ccc2c(c1)N(CCCCCCN(CC)CC)c1ccccc1S2	3.12 (≈ 7.09 µM)	> 50	1.56 (≈ 3.54 µM)	> 200	3.12 (≈ 7.09 µM)	–
CCCCCN1c2ccccc2Sc2ccc(OCC(=O)N[C@@H](CCCNC(=N)N)C(=O)OC)cc21	12.5 (≈ 24.3 µM)	> 50	3.12 (≈ 6.08 µM)	> 200	6.25 (≈ 12.2 µM)	–
CCCCCCCCCOc1ccc2c(c1)N(CCCCNC(=N)N)c1ccccc1S2	3.12 (≈ 6.87 µM)	> 50	1.56 (≈ 3.43 µM)	> 200	1.56 (≈ 3.43 µM)	–
CCn1cc(C(=O)O)c(=O)c2cc(F)c(N3CCNCC3)cc21 [NORFLOXACIN]	1.56 (≈ 4.89 µM)	–	–	–	–	fold change (FC) [11]: 1024
CCCCCOc1ccc2c(c1)N(CCCCCCN)c1ccccc1S2	3.12 (≈ 8.13 µM)	> 50	1.56 (≈ 4.06 µM)	> 200	1.56 (≈ 4.06 µM)	–
CCOC(=O)COc1ccc2c(c1)Nc1ccccc1S2	> 50	> 50	> 50	> 200	> 50	–
CC(C)=CCOc1ccc2c(c1)Nc1ccccc1S2	> 50	> 50	> 50	> 200	> 50	–
CCCCCCCN1c2ccccc2Sc2ccc(OCC(=O)N[C@@H](CCCNC(=N)N)C(=O)N[C@@H](CCCNC(=N)N)C(=O)N[C@@H](CCCNC(=N)N)C(=O)OC)cc21	0.78 (≈ 0.913 µM)	12.5 (≈ 14.6 µM)	0.78 (≈ 0.913 µM)	> 200	0.78 (≈ 0.913 µM)	–

Structure (SMILES)	MIC [1] [µg/mL]	MIC [2] [µg/mL]	MIC [3] [µg/mL]	HC50 [4] [µg/mL]	MIC [5] [µg/mL]	further results
CCCCCOc1ccc2c(c1)N(CCCCCCNC(=N)N)c1ccccc1S2	1.56 (≈ 3.66 µM)	> 50	1.56 (≈ 3.66 µM)	> 200	1.56 (≈ 3.66 µM)	–
CC(C)=CCOc1ccc2c(c1)N(CCCCNC(=N)N)c1ccccc1S2	1.56 (≈ 3.93 µM)	> 50	0.78 (≈ 1.97 µM)	> 200	0.78 (≈ 1.97 µM)	–
CCCCCCCN1c2ccccc2Sc2ccc(OCC(=O)OCC)cc21	> 50	> 50	> 50	> 200	> 50	–
CCCCCOc1ccc2c(c1)N(CCCCNC(=N)N)c1ccccc1S2	1.56 (≈ 3.91 µM)	6.25 (≈ 15.7 µM)	1.56 (≈ 3.91 µM)	> 200	1.56 (≈ 3.91 µM)	MIC [7]: 25 µg/mL (≈ 62.7 µM); MIC [8]: > 50 µg/mL; MIC [9]: 6.25 µg/mL (≈ 15.7 µM)
COc1ccc2c(c1)Nc1ccccc1S2	> 50	> 50	> 50	> 200	> 50	–
CCCCCCCCCN1c2ccccc2Sc2ccc(OCC(=O)N[C@@H](CCCNC(=N)N)C(=O)N[C@@H](CCCNC(=N)N)C(=O)OC)cc21	1.56 (≈ 2.15 µM)	1.56 (≈ 2.15 µM)	1.56 (≈ 2.15 µM)	> 200	1.56 (≈ 2.15 µM)	MIC [7]: 6.25 µg/mL (≈ 8.61 µM); MIC [8]: 50 µg/mL (≈ 68.9 µM); MIC [9]: 3.12 µg/mL (≈ 4.3 µM)
CCCCCOc1ccc2c(c1)N(CCCNC(=N)N)c1ccccc1S2	1.56 (≈ 4.06 µM)	> 50	1.56 (≈ 4.06 µM)	> 200	0.78 (≈ 2.03 µM)	–
CCCCCOc1ccc2c(c1)Nc1ccccc1S2	> 50	> 50	> 50	> 200	> 50	–
CCCCCOc1ccc2c(c1)N(CCCN)c1ccccc1S2	3.12 (≈ 9.12 µM)	25 (≈ 73 µM)	3.12 (≈ 9.12 µM)	> 200	3.12 (≈ 9.12 µM)	–
CCCCCOc1ccc2c(c1)N(CCCCCCCCN)c1ccccc1S2	3.12 (≈ 7.57 µM)	> 50	3.12 (≈ 7.57 µM)	> 200	3.12 (≈ 7.57 µM)	–
CCCCCCCOc1ccc2c(c1)N(CCCCN)c1ccccc1S2	3.12 (≈ 8.13 µM)	> 50	1.56 (≈ 4.06 µM)	> 200	3.12 (≈ 8.13 µM)	–
CCCCCCCN1c2ccccc2Sc2ccc(OCC(=O)N[C@@H](CCCNC(=N)N)C(=O)N[C@@H](CCCNC(=N)N)C(=O)OC)cc21	1.56 (≈ 2.24 µM)	6.25 (≈ 8.96 µM)	1.56 (≈ 2.24 µM)	> 200	1.56 (≈ 2.24 µM)	MIC [7]: 25 µg/mL (≈ 35.8 µM); MIC [8]: > 50 µg/mL; MIC [9]: 25 µg/mL (≈ 35.8 µM)
CCCCCN1c2ccccc2Sc2ccc(OCC(=O)N[C@@H](CCCNC(=N)N)C(=O)N[C@@H](CCCNC(=N)N)C(=O)OC)cc21	6.25 (≈ 9.33 µM)	> 50	3.12 (≈ 4.67 µM)	> 200	6.25 (≈ 9.33 µM)	–
CCCCCCCCCOc1ccc2c(c1)N(CCCCN)c1ccccc1S2	3.12 (≈ 7.57 µM)	> 50	3.12 (≈ 7.57 µM)	> 200	3.12 (≈ 7.57 µM)	–
CCCCCCCCCN1c2ccccc2Sc2ccc(OCC(=O)OCC)cc21	> 50	> 50	> 50	> 200	> 50	–
CCCCCCCOc1ccc2c(c1)Nc1ccccc1S2	> 50	> 50	> 50	> 200	> 50	–
CCCCCCCOc1ccc2c(c1)N(CCCCNC(=N)N)c1ccccc1S2	3.12 (≈ 7.32 µM)	> 50	0.78 (≈ 1.83 µM)	> 200	0.78 (≈ 1.83 µM)	–
CC[C@H](C)[C@H](NC(=O)CN)C(=O)NCC(=O)N[C@@H](C)C(=O)N[C@H](C(=O)N[C@@H](CC(C)C)C(=O)N[C@@H](CCCCN)C(=O)N[C@H](C(=O)N[C@@H](CC(C)C)C(=O)N[C@H](C(=O)N[C@H](C(=O)NCC(=O)N[C@@H](CC(C)C)C(=O)N1CCC[C@H]1C(=O)N[C@@H](C)C(=O)N[C@@H](CC(C)C)C(=O)N[C@H](C(=O)N[C@@H](CO)C(=O)N[C@@H](Cc1c[nH]c2ccccc12)C(=O)N[C@H](C(=O)N[C@@H](CCCCN)C(=O)N[C@@H](CCCNC(=N)N)C(=O)N[C@@H](CCCCN)C(=O)N[C@@H](CCCNC(=N)N)C(=O)N[C@@H](CCC(N)=O)C(=O)N[C@@H](CCC(N)=O)C(N)=O)[C@@H](C)CC)[C@@H](C)CC)[C@@H](C)O)[C@@H](C)O)C(C)C)C(C)C [MELITTIN]	–	–	–	–	–	inhibition (INH) [12]: >90%; inhibition (INH) [13]: >90%; Activity [14]: >10%; MIC [7]: 6.25 µg/mL (≈ 2.2 µM); Activity [15]: <10%; MIC [9]: 6.25 µg/mL (≈ 2.2 µM)
CCCCCN1c2ccccc2Sc2ccc(OCC(=O)OCC)cc21	> 50	> 50	> 50	> 200	> 50	–
